Results published in US10973896B2, “Treatment or prevention of melanoma using photochemical internalization of a melanoma antigen” (PCI Biotech AS, priority 2014, dated 2021).

Experiments:
Type in all cases: in vivo, C57BL/6 mice
[1] = test system: OVA-expressing B16 melanoma cells; assay: Therapeutic vaccination of melanoma-bearing mice (Example 1); details: immunised after appearance of tumours under the skin; FIG. 2A
[2] = test system: CD8, CD44 and IFN-γ positive cells; assay: Intracellular IFN-γ staining after SIINFEKL re-stimulation (Example 2)
Procedure: (§1) The frequency of OVA-specific CD8 T-cells in blood was monitored by staining the cells with anti-CD8 antibody and H-2K^b/SIINFEKL ProS pentamer (Proimmune, Oxford, UK) for analysis by flow cytometry. The activation status of the cells was further analysed by testing the expression of CD44 and CD69 by flow cytometry. Intracellular staining for IFN-γ was done after overnight stimulation of splenocytes in 24-well plates with the CD8 epitope OVA257-264 (SIINFEKL) at 37 ° C. Brefeldin A was added during the last 4 hours. The cells were then washed and fixed with 4% formaldehyde in PBS for 10 min on ice. Anti-CD16/32 was added to block unspecific binding to Fc receptors. The cells were then permeabilised with 0.1% NP40 in PBS for 3 min and washed before staining with anti-IFN-γ, anti-CD8 and ant-CD44 antibodies (eBioscience or BD Pharmingen). The cells were acquired using FACSCanto (BD Biosciences, San Jose, USA) and analysed using FlowJo 8.5.2 software (Tree Star, Inc., Ashland, Oreg.).

[3] = test system: splenocytes re-stimulated with SIINFEKL; assay: IL-2 and IFN-γ ELISA of re-stimulated splenocytes (Example 2); details: day 11 splenocytes, 10 μg OVA alone, or with PCI at 25 μg TPCS2a
Procedure: Alternatively, 2×10^5 splenocytes were re-stimulated in 96-well plates with OVA protein or the SIINFEKL. After 24 and 72 hours, supernatants were collected and analysed for IL-2 or IFN-γ by ELISA (eBioscience—performed according to the manufacturer's instructions).

OVA-expressing B16 cells = assay: Metastatic potential of melanoma, lung melanoma spots after intravenous B16 (Example 1); details: B16 melanoma cells given intravenously after immunisation; FIG. 4
Procedure: C57BLJ6 mice were vaccinated as above with OVA with or without TPSC2a and challenged four days later with 500,000 OVA-expressing B16 cells given by intravenous injection. On day 19, mice were euthanized and spleens and lungs were harvested. The lungs were analysed by counting melanoma spots as a measure for metastasis. Spleen cells were analysed by flow cytometry for CD8 T-cell activation as described above.

[4] = test system: SIINFEKL-specific CD8 T cells; assay: PCI immunisation of OT-I-spiked mice, SIINFEKL pentamer flow cytometry (Example 2)
Procedure: One day prior to the immunisation, spleens and lymph nodes were isolated from female OT-1 mice, and erythrocytes were removed by lysis (RBC Lysing Buffer Hybri-Max from Sigma-Aldrich) from the homogenised cell suspensions. The remaining cells were washed in PBS, filtered through 70 micron nylon strainers, and 2×10^6 OT-1 cells were administered by intravenous injection into recipient female C57BLJ6 mice; the adoptive transfer of SIINFEKL-specific CD8 T cells facilitates monitoring of the immune response by flow cytometry. One day or 8 hours later, mice were bled by tail bleeding, and the blood was collected in heparin-containing tubes for analysis of the baseline frequency of OVA-specific CD8 T cells.
Then, the mice were shaved on the abdominal area, and the vaccines, consisting of OVA or of a mixture of OVA and TPCS2a, were injected intradermally using syringes with 29G needles. The vaccines were kept light protected and used within 60 minutes of preparation. The vaccines were given in two injections of 50 μl each, on the left and right side of the abdominal mid line. OVA was tested at 10 to 100 μg per dose. The TPCS2a dose was 7.5 to 250 μg.
On day 0, prior to vaccination and on various days thereafter (e.g. day 6, 7, 8, 9, 14, 23, as indicated) mice were bled by tail bleeding and erythrocytes were removed by lysis, before analysis of antigen-specific CD8 T cells by flow cytometry. At the end of the experiment (typically 11, 12, 14 or 23 days), the mice were euthanized and the splenocytes analysed ex vivo. At various time points after the TPCS2a injection (0-48 hours), the mice were anaesthetised by intraperitoneal injection of a mixture of ketamine (25 mg/kg body weight) and xylazin (4 mg/kg) and placed on a light source (for illumination and activation of the photosensitiser TPCS2a). The light dose was 6 minutes, if not otherwise stated. The whole procedure is illustrated in the scheme of FIG. 6A. The illumination of mice using LumiSource™ is imaged in FIG. 6B.
as §1

[5] = test system: spleen cells restimulated by SIINFEKL peptide; assay: Poly(IC) and CpG experiment, IFN-gamma ELISA of restimulated spleen cells (Example 4); details: day 14 spleen cells; FIG. 19B
Procedure: For ELISA analysis 2×10^5 splenocytes were re-stimulated in 96-well plates with 0.005 μg/ml of the SIINFEKL peptide. After 72 hours, supernatants were collected and analysed for IFN-γ by ELISA (eBioscience—performed according to the manufacturer's instructions).
The experiment was performed as described under Materials and Methods, and mouse blood samples from day 7 after vaccination were analysed by flow cytometry as described. Spleen cells from day 14 were restimulated by SIINFEKL peptide and analysed by Interferon-gamma ELISA as described. All mice received OT-1 cells as described. • The following experimental groups were included: • 1. Untreated: Mice received OT-1 cells, but were not vaccinated or illuminated. • 2. OVA: Mice were vaccinated with 10 μg of OVA. They were not illuminated. • 3. OVA 100 μg: Mice were vaccinated with a mixture of 100 μg OVA. They were not illuminated. • 4. OVA 10 μg PCI: Mice were vaccinated with a mixture of 10 μg OVA+150 μg TPCS2a. Illuminated as described. • 5. CpG OVA: Mice were vaccinated with a mixture of 10 μg OVA+50 μg ODN2935 CpG oligonucleotide. They were not illuminated. • 6. CpG OVA/PCI: Mice were vaccinated with a mixture of 10 μg OVA+50 μg ODN2935 CpG oligonucleotide+150 μg TPCS2a. Illuminated as described. • 7. Poly(IC) OVA: Mice were vaccinated with a mixture of 10 μg OVA+50 μg Poly(IC). They were not illuminated. • 8. […]

OVA: Chicken ovalbumin protein, model antigen expressed by the transfected B16 melanoma cells
growth of established tumours [1]: grew readily
responders for IFN-γ production in splenocytes (better responders among mice tested) ([2]; day 11, 10 μg OVA alone, or OVA and PCI (ten mice, 25 and 250 μg TPCS2a)): weak responders in all mice tested
increase in frequency of IFN-γ-producing CD44-positive CD8 cells compared to control mice with OT-I transfer only ([2]; day 14 PBMCs, OVA alone, or PCI with illumination at 2 hours): 4 fold
frequencies of CD44-positive IFN-γ producing cells in splenocytes ([2]; day 23, FIG. 7E right panel): barely detectable frequencies
IL-2 secretion by ELISA ([3]; 24 hours): weak but clearly measurable
IFN-γ secretion by ELISA ([3]; 72 hours): not IFN-γ secretion
melanoma spots (lung metastases) on the lung, average (OVA-expressing B16 cells): approx. 50
effect on SIINFEKL-specific CD8 T cells in blood as compared to untreated animals ([4]; 10 μg OVA alone, data not shown): no measurable effect
activation markers CD44, CD25 and CD69 on SIINFEKL-specific cells in blood ([4]; by day six): strong up-regulation
numbers of antigen-specific CD8 T cells ([4]; day 23, OVA alone, or OVA plus TPCS2a illuminated two hours after administration): retracted to baseline levels
frequencies of measurable SIINFEKL-specific CD8 T cells in splenocytes ([4]; day 54, 20 μg OVA with or without 200 μg TPCS2a, FIG. 14A): not different from untreated mice
frequency of SIINFEKL-specific CD8 T cells in the peripheral blood ([4]; day six, 100 μg OVA alone, or with 25 μg TPCS2a illuminated two hours after vaccination): approximately 3.5%
IFN-gamma ELISA after restimulation of spleen cells with SIINFEKL peptide [5]: virtually no effect
